Among the data in US11219618B2, “Pyridylpyridone compounds” (Sprint Bioscience AB, priority 2017, dated 2022) are IC50 values, retold here.

One may read the IC50 as the midpoint of a concentration-inhibition curve.

The target of test [1] is Vps34 enzyme (Homo sapiens (Human), UniProt Q8NEB9). Description: Vps34 biochemical assay (Adapta kinase assay). The settings on record: 20 μM ATP and 200 μM PI:PS in substrate mix, 1 h at room temperature, TR-FRET, read-out: Median IC50 nM Adapta. On the procedure: Dilution series of compounds of the invention were prepared in DMSO at 100 times the final assay concentration (n1=n0/3 in 10 points). The compounds were further diluted to 4 times the assay concentration in assay buffer (Life technologies buffer Q, PV5125, diluted 5 times supplemented with 2 mM DTT and 2 mM MnCl2). 2.5 μl of the diluted compounds were added to a 384 well assay plate followed by 2.5 μl of 16.5 nM Vps34 enzyme (Life technologies, PV5126). Enzyme and compounds were pre-incubated at rt for 15 min. Then 5 μl of substrate mix containing 20 μM ATP (Life technologies, PV3227) and 200 μM PI:PS substrate (Life technologies, PV5122) in assay buffer was added to the wells containing compound and enzyme. Mixing was performed by pipetting several times. The reaction was incubated at room temperature for 1 h. Then 5 μl stop-detection mix, prepared as described in the Adapta kinase assay kit instructions (Life technologies, PV5099) containing Adapta Eu-anti-ADP antibody (2.3 nM), Alexa Fluor 647 ADP tracer (9 nM) and EDTA (30 mM) in TR-FRET buffer, was added to quench the reaction. Mixing was performed by pipetting several times. The assay plate was then incubated at room temperature for 30 min and read with Artemis micro plate reader. Percent inhibition of the compounds as compared to DMSO treated control samples was calculated. By the use of Dotmatics software compound concentration versus percent inhibition was fitted to generate IC50 values.
A general note: TR-FRET usually uses a lanthanide donor and a delayed reading to cut background.

The test system of test [2] is autophagy in HOS cells (GFP-LC3). Put plainly: High content screening autophagy assay (GFP-LC3 foci). Type of test: cell-based. The settings on record: Homo sapiens; HOS cells expressing GFP-LC3; autophagy activated with KU-0063794 500 nM plus Bafilomycin A1 5 nM; 6 hours; foci area per cell; read-out: Median IC50 (μM) Cellular assay. On the procedure:
Human osteosarcoma cells (HOS) stably expressing a Green Fluorescent Protein (GFP) tagged LC3 (GFP-LC3) were used to determine the inhibitory effect on autophagy of proprietary compounds. For that purpose, autophagy was activated by using the mTOR inhibitor KU-0063794 at 500 nM in the presence of Bafilomycin A1 (Sigma-Aldrich) at 5 nM. Shortly, cells were plated overnight in clear bottom 96-well plates in DMEM—High Modified media (Hi-Clone Cat #SH30285.01). At the start of the experiment, the media was removed and replaced with fresh media containing the mTOR inhibitor, Bafilomycin A1 and the vehicle or a test compound as indicated. After 6 hours the media was removed, cells were washed twice with ice-cold phosphate buffered saline (PBS) and fixed with 4% paraformaldehyde for 20 minutes at room temperature. Then the cells were washed twice with ice-cold PBS before adding Hoechst 33342 at 1 μg/ml in PBS for nuclear staining. After incubation overnight at 4° C., cells were washed once with PBS to remove the excess of dye and 100 μl of PBS was added to each well. Images were acquired at 20× magnification, 6 images per well, using the ImageXpress automated microscope (Molecular Devices Inc.) and analyzed with MetaXpress software to identify LC3-GFP foci. Foci area per cell values were used to generate dose response curves and […] were calculated using the non-linear fitting analysis in GraphPad Prism software.
The results of the assay are shown in Table 2 (Median IC50 μM HOS-LC3).

Sequence of Vps34 enzyme (Q8NEB9 whole entry): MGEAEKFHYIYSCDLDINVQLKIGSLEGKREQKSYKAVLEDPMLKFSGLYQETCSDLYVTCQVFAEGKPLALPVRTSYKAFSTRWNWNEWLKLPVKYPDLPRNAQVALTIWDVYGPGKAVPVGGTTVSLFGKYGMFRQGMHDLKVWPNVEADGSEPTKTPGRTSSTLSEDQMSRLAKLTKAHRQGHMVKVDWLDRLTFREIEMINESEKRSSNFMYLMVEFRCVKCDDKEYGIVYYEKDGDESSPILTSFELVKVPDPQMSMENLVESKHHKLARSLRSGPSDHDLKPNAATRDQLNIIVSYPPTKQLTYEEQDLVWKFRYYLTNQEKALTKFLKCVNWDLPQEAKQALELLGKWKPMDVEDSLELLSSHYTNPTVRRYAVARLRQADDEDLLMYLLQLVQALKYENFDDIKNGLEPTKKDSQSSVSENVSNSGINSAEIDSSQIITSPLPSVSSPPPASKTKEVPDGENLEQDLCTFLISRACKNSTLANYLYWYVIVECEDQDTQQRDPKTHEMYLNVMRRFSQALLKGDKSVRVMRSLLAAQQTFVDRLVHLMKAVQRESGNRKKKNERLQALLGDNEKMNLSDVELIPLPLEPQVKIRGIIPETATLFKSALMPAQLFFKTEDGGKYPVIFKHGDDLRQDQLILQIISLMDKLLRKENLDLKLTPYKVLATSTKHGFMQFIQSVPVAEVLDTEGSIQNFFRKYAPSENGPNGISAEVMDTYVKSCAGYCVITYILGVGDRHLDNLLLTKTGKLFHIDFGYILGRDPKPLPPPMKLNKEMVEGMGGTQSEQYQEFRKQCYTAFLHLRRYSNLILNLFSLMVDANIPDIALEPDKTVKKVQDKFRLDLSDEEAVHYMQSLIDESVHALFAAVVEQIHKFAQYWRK

With `CC(=O)Nc1cc(-c2cc(N3CCOCC3C3CC3)[nH]c(=O)c2)ccn1` (stereo not drawn) [Example 32, N-[4-[2-(3-cyclopropylmorpholin-4-yl)-6-oxo-1H-pyridin-4-yl]-2-pyridyl]acetamide], the concentration for half-maximal inhibition (IC50) in test [1] worked out at 5 nM.

On to `CCS(=O)(=O)N1CCN(c2cc(-c3ccnc(NC(C)=O)c3)cc(=O)[nH]2)C(C(F)(F)F)C1` (stereo not drawn) [Example 30, N-[4-[2-[4-ethylsulfonyl-2-(trifluoromethyl)piperazin-1-yl]-6-oxo-1H-pyridin-4-yl]-2-pyridyl]acetamide], for which the values for the IC50 in test [1] and in test [2] were under 5 nM and 0.02 µM, respectively.

On to `CN(C)C(=O)Nc1cc(-c2cc(-c3ccccc3C(F)(F)F)[nH]c(=O)c2)ccn1` [Example 62, 1,1-Dimethyl-3-[4-[2-oxo-6-[2-(trifluoromethyl)phenyl]-1H-pyridin-4-yl]-2-pyridyl]urea], for which the IC50 in test [1] is 50 nM.

Take `CC(=O)Nc1cc(-c2cc(-c3cnccc3C)[nH]c(=O)c2)ccn1` [Example 40, N-[4-[2-(4-methyl-3-pyridyl)-6-oxo-1H-pyridin-4-yl]-2-pyridyl]acetamide]: the IC50 in test [1] is under 5 nM.

Take `CC(=O)Nc1cc(-c2cc(N3CCCCC3C(F)(F)F)[nH]c(=O)c2)ccn1` (stereo not drawn) [Example 19, N-[4-[2-oxo-6-[2-(trifluoromethyl)-1-piperidyl]-1H-pyridin-4-yl]-2-pyridyl]acetamide]: the IC50 in test [1] is 12 nM; in test [2] it was 0.067 µM.

Take `COC(C)(C)C1CCCN1c1cc(-c2ccnc(NC(C)=O)c2)cc(=O)[nH]1` (stereo not drawn) [Example 68, N-[4-[2-[2-(1-methoxy-1-methyl-ethyl)pyrrolidin-1-yl]-6-oxo-1H-pyridin-4-yl]-2-pyridyl]acetamide]: the half-maximal inhibitory concentration (IC50) in test [1] stood at 26 nM.

As for `COCC(=O)Nc1cc(-c2cc(-c3ccccc3Cl)[nH]c(=O)c2)ccn1` [Example 12, N-[4-[2-(2-chlorophenyl)-6-oxo-1H-pyridin-4-yl]-2-pyridyl]-2-methoxy-acetamide], the figures for the IC50 in test [1] and in test [2] were 7 nM and 0.147 µM, respectively.

As for `Nc1cc(-c2cc(-c3ccccc3Cl)[nH]c(=O)c2)ccn1` [Example 11, 4-(2-Amino-4-pyridyl)-6-(2-chlorophenyl)-1H-pyridin-2-one], the IC50 came out at 45 nM in test [1] and 0.742 µM in test [2].

Consider `CC(=O)Nc1cc(-c2cc(-c3ccccc3C(F)(F)F)[nH]c(=O)c2)ccn1` [Example 34, N-[4-[2-oxo-6-[2-(trifluoromethyl)phenyl]-1H-pyridin-4-yl]-2-pyridyl]acetamide], for which the IC50 is under 5 nM in test [1] and 0.063 µM in test [2].

Consider `COC(=O)Nc1cc(-c2cc(N3CCCCC3C(F)(F)F)[nH]c(=O)c2)ccn1` (stereo not drawn) [Example 70, Methyl N-[4-[2-oxo-6-[2-(trifluoromethyl)-1-piperidyl]-1H-pyridin-4-yl]-2-pyridyl]carbamate], for which the IC50 in test [1] is under 5 nM.

Turning to `COC(=O)Nc1cc(-c2cc(N3CCOCC3C(F)(F)F)[nH]c(=O)c2)ccn1` (stereo not drawn) [Example 45, Methyl N-[4-[2-oxo-6-[3-(trifluoromethyl)morpholin-4-yl]-1H-pyridin-4-yl]-2-pyridyl]carbamate], the IC50 in test [1] was under 5 nM; in test [2], 0.023 µM.

For the molecule `CC(=O)Nc1cc(-c2cc(-c3cccnc3C)[nH]c(=O)c2)ccn1` [Example 38, N-[4-[2-(2-methyl-3-pyridyl)-6-oxo-1H-pyridin-4-yl]-2-pyridyl]acetamide], the IC50 in test [1] is under 5 nM.

In the case of `CC(=O)Nc1cc(-c2cc(-c3cccnc3C(F)(F)F)[nH]c(=O)c2)ccn1` [Example 36, N-[4-[2-oxo-6-[2-(trifluoromethyl)-3-pyridyl]-1H-pyridin-4-yl]-2-pyridyl]acetamide], the IC50 was under 5 nM in test [1] and 0.092 µM in test [2].

Regarding `COC(=O)Nc1cc(-c2cc(-c3ccccc3Cl)[nH]c(=O)c2)ccn1` [Example 50, Methyl N-[4-[2-(2-chlorophenyl)-6-oxo-1H-pyridin-4-yl]-2-pyridyl]carbamate], the figures for the concentration for half-maximal inhibition (IC50) in test [1] and in test [2] were under 5 nM and 0.029 µM, respectively.

Regarding `CC(=O)Nc1cc(-c2cc(-c3cscc3C(F)(F)F)[nH]c(=O)c2)ccn1` [Example 42, N-[4-[2-oxo-6-[4-(trifluoromethyl)-3-thienyl]-1H-pyridin-4-yl]-2-pyridyl]acetamide], the IC50 in test [1] was under 5 nM; in test [2], 0.046 µM.

`CCn1cc(-c2cc(-c3ccnc(NC(=O)OC)c3)cc(=O)[nH]2)c(C(F)(F)F)n1` [Example 54, Methyl N-[4-[2-[1-ethyl-3-(trifluoromethyl)pyrazol-4-yl]-6-oxo-1H-pyridin-4-yl]-2-pyridyl]carbamate]: the IC50 in test [1] is under 5 nM; in test [2], 0.105 µM.

In the case of `CCn1cc(-c2cc(-c3ccnc(NC(C)=O)c3)cc(=O)[nH]2)c(C(F)(F)F)n1` [Example 44, N-[4-[2-[1-ethyl-3-(trifluoromethyl)pyrazol-4-yl]-6-oxo-1H-pyridin-4-yl]-2-pyridyl]acetamide], the results for the IC50 in test [1] and in test [2] were under 5 nM and 0.138 µM, respectively.

Regarding `O=C(Nc1cc(-c2cc(-c3ccccc3C(F)(F)F)[nH]c(=O)c2)ccn1)N1CCCC1` [Example 66, N-[4-[2-oxo-6-[2-(trifluoromethyl)phenyl]-1H-pyridin-4-yl]-2-pyridyl]pyrrolidine-1-carboxamide], the IC50 in test [1] is 147 nM.

For `CC(=O)Nc1cc(-c2cc(-c3ccccc3Cl)[nH]c(=O)c2)ccn1` [Example 1, N-[4-[2-(2-chlorophenyl)-6-oxo-1H-pyridin-4-yl]-2-pyridyl]acetamide], the IC50 in test [2] was 0.026 µM.

With `COC(=O)Nc1cc(-c2cc(-c3ccccc3C(F)(F)F)[nH]c(=O)c2)ccn1` [Example 48, Methyl N-[4-[2-oxo-6-[2-(trifluoromethyl)phenyl]-1H-pyridin-4-yl]-2-pyridyl]carbamate], the values for the IC50 in test [1] and in test [2] were under 5 nM and 0.02 µM, respectively.

Regarding `Nc1cc(-c2cc(-c3cccnc3)[nH]c(=O)c2)ccn1` [Example 5, 4-(2-Amino-4-pyridyl)-6-(3-pyridyl)-1H-pyridin-2-one], in test [1], the IC50 worked out at 410 nM.

Regarding `CC(=O)Nc1cc(-c2cc(N3CCOCC3C(F)(F)F)[nH]c(=O)c2)ccn1` (stereo not drawn) [Example 26, N-[4-[2-oxo-6-[3-(trifluoromethyl)morpholin-4-yl]-1H-pyridin-4-yl]-2-pyridyl]acetamide], the IC50 in test [1] is under 5 nM; in test [2], 0.113 µM.

Regarding `COC(=O)Nc1cc(-c2cc(-c3cccnc3C(F)(F)F)[nH]c(=O)c2)ccn1` [Example 52, Methyl N-[4-[2-oxo-6-[2-(trifluoromethyl)-3-pyridyl]-1H-pyridin-4-yl]-2-pyridyl]carbamate], the IC50 in test [1] was under 5 nM; in test [2] it was 0.022 µM.

Regarding `O=C(Nc1cc(-c2cc(N3CCCCC3C(F)(F)F)[nH]c(=O)c2)ccn1)C1CC1` (stereo not drawn) [Example 21, N-[4-[2-oxo-6-[2-(trifluoromethyl)-1-piperidyl]-1H-pyridin-4-yl]-2-pyridyl]cyclopropanecarboxamide], the IC50 is under 5 nM in test [1] and 0.016 µM in test [2].
